PubChem BioAssay (NCI)
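Method: 48-hour compound exposure of cells in 96-well plates, five concentrations, linear interpolation of endpoints. TGI: total growth inhibition.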

What was measured:
Experiment in all cases: NCI tumour cell line growth inhibition, 48 h
[1] = tested on: OVCAR-4 ovarian
[2] = tested on: SK-MEL-28 melanoma
[3] = tested on: TK-10 renal
[4] = tested on: MALME-3M melanoma
[5] = tested on: HCC-2998 colon
[6] = tested on: UACC-62 melanoma
[7] = tested on: SF-539 CNS
[8] = tested on: UACC-257 melanoma
[9] = tested on: NCI/ADR-RES ovarian
[10] = tested on: M14 melanoma
[11] = tested on: BT-549 breast
[12] = tested on: HOP-62 NSCLC
[13] = tested on: KM12 colon
[14] = tested on: CAKI-1 renal
[15] = tested on: SF-295 CNS
[16] = tested on: CCRF-CEM leukemia
[17] = tested on: DU-145 prostate
[18] = tested on: SN12C renal
[19] = tested on: OVCAR-3 ovarian
[20] = tested on: SNB-75 CNS
[21] = tested on: HOP-92 NSCLC
[22] = tested on: K-562 leukemia
[23] = tested on: LOX IMVI melanoma
[24] = tested on: RXF 393 renal
[25] = tested on: SF-268 CNS
[26] = tested on: A549 NSCLC
[27] = tested on: SK-MEL-5 melanoma
[28] = tested on: SK-OV-3 ovarian
[29] = tested on: NCI-H460 lung
[30] = tested on: COLO 205 colon
[31] = tested on: T-47D breast
[32] = tested on: EKVX NSCLC
[33] = tested on: ACHN renal
[34] = tested on: HL-60(TB) leukemia
[35] = tested on: NCI-H226 lung
[36] = tested on: IGROV1 ovarian
[37] = tested on: HCT-15 colon
[38] = tested on: A498 renal
[39] = tested on: SW-620 colon
[40] = tested on: HS 578T breast
[41] = tested on: RPMI-8226 leukemia
[42] = tested on: MDA-MB-435
[43] = tested on: UO-31 renal
[44] = tested on: PC-3 prostate
[45] = tested on: MCF7 breast
[46] = tested on: SNB-19 CNS
[47] = tested on: U251 CNS
[48] = tested on: OVCAR-8 ovarian
[49] = tested on: SR leukemia
[50] = tested on: OVCAR-5 ovarian
[51] = tested on: MDA-MB-231 breast
[52] = tested on: MDA-N
[53] = tested on: HT29 colon
[54] = tested on: NCI-H23 lung
[55] = tested on: 786-0 renal
[56] = tested on: SK-MEL-2 melanoma
[57] = tested on: HCT-116 colon
[58] = tested on: NCI-H522 lung
[59] = tested on: MOLT-4 leukemia

## CCCCC(=O)NC1(c2cc3ccccc3s2)CCCCC1
[1]
  TGI: > 100 µM
[2]
  TGI: > 100 µM
[3]
  TGI: > 100 µM
[4]
  TGI: > 100 µM
[5]
  TGI: > 100 µM
[6]
  TGI: > 100 µM
[7]
  TGI: > 100 µM
[8]
  TGI: > 100 µM
[9]
  TGI: > 100 µM
[10]
  TGI: > 100 µM
[11]
  TGI: > 100 µM
[12]
  TGI: > 100 µM
[13]
  TGI: > 100 µM
[14]
  TGI: > 100 µM
[15]
  TGI: > 100 µM
[16]
  TGI: > 100 µM
[17]
  TGI: > 100 µM
[18]
  TGI: > 100 µM
[19]
  TGI: > 100 µM
[20]
  TGI: > 100 µM
[21]
  TGI: > 100 µM
[22]
  TGI: > 100 µM
[23]
  TGI: > 100 µM
[24]
  TGI: > 100 µM
[25]
  TGI: > 100 µM
[26]
  TGI: > 100 µM
[27]
  TGI: > 100 µM
[28]
  TGI: > 100 µM
[29]
  TGI: > 100 µM
[30]
  TGI: > 100 µM
[31]
  TGI: > 100 µM
[32]
  TGI: > 100 µM
[33]
  TGI: > 100 µM
[34]
  TGI: 76.5 µM
[35]
  TGI: > 100 µM
[36]
  TGI: > 100 µM
[37]
  TGI: > 100 µM
[38]
  TGI: > 100 µM
[39]
  TGI: > 100 µM
[40]
  TGI: > 100 µM
[41]
  TGI: > 100 µM
[42]
  TGI: > 100 µM
[43]
  TGI: > 100 µM
[44]
  TGI: > 100 µM
[45]
  TGI: > 100 µM
[46]
  TGI: > 100 µM
[47]
  TGI: > 100 µM
[48]
  TGI: > 100 µM
[49]
  TGI: > 100 µM
[50]
  TGI: > 100 µM
[51]
  TGI: > 100 µM
[52]
  TGI: > 100 µM
[53]
  TGI: > 100 µM
[54]
  TGI: > 100 µM
[55]
  TGI: > 100 µM
[56]
  TGI: > 100 µM
[57]
  TGI: > 100 µM
[58]
  TGI: > 100 µM

## CC(=O)OCC1OC(N2C(C)=C(C(C)=O)C(c3ccco3)C(C#N)=C2S)C(OC(C)=O)C(OC(C)=O)C1OC(C)=O (stereo not given)
[1]
  TGI: > 100 µM
[2]
  TGI: > 100 µM
[3]
  TGI: > 100 µM
[4]
  TGI: > 100 µM
[5]
  TGI: > 100 µM
[6]
  TGI: > 100 µM
[7]
  TGI: > 100 µM
[8]
  TGI: > 100 µM
[9]
  TGI: > 100 µM
[10]
  TGI: > 100 µM
[11]
  TGI: > 100 µM
[12]
  TGI: > 100 µM
[13]
  TGI: > 100 µM
[14]
  TGI: > 100 µM
[15]
  TGI: > 100 µM
[16]
  TGI: > 100 µM
[17]
  TGI: > 100 µM
[18]
  TGI: > 100 µM
[19]
  TGI: > 100 µM
[20]
  TGI: > 100 µM
[21]
  TGI: > 100 µM
[22]
  TGI: > 100 µM
[23]
  TGI: > 100 µM
[24]
  TGI: > 100 µM
[25]
  TGI: > 100 µM
[26]
  TGI: > 100 µM
[27]
  TGI: > 100 µM
[29]
  TGI: > 100 µM
[30]
  TGI: > 100 µM
[31]
  TGI: > 100 µM
[33]
  TGI: > 100 µM
[34]
  TGI: > 100 µM
[35]
  TGI: > 100 µM
[36]
  TGI: > 100 µM
[37]
  TGI: > 100 µM
[38]
  TGI: > 100 µM
[39]
  TGI: > 100 µM
[40]
  TGI: > 100 µM
[41]
  TGI: > 100 µM
[42]
  TGI: > 100 µM
[43]
  TGI: > 100 µM
[44]
  TGI: > 100 µM
[45]
  TGI: > 100 µM
[46]
  TGI: > 100 µM
[47]
  TGI: > 100 µM
[48]
  TGI: > 100 µM
[49]
  TGI: > 100 µM
[50]
  TGI: > 100 µM
[51]
  TGI: > 100 µM
[52]
  TGI: > 100 µM
[53]
  TGI: > 100 µM
[54]
  TGI: > 100 µM
[55]
  TGI: > 100 µM
[56]
  TGI: > 100 µM
[57]
  TGI: > 100 µM
[58]
  TGI: > 100 µM
[59]
  TGI: > 100 µM

## O=C1c2cc([N+](=O)[O-])ccc2-c2cccc(F)c21
[1]
  TGI: > 100 µM
[2]
  TGI: > 100 µM
[3]
  TGI: > 100 µM
[5]
  TGI: > 100 µM
[6]
  TGI: > 100 µM
[7]
  TGI: > 100 µM
[8]
  TGI: > 100 µM
[9]
  TGI: > 100 µM
[10]
  TGI: > 100 µM
[11]
  TGI: > 100 µM
[12]
  TGI: > 100 µM
[13]
  TGI: > 100 µM
[14]
  TGI: > 100 µM
[15]
  TGI: > 100 µM
[16]
  TGI: > 100 µM
[17]
  TGI: > 100 µM
[18]
  TGI: > 100 µM
[19]
  TGI: > 100 µM
[20]
  TGI: > 100 µM
[21]
  TGI: > 100 µM
[22]
  TGI: > 100 µM
[23]
  TGI: > 100 µM
[24]
  TGI: > 100 µM
[25]
  TGI: > 100 µM
[26]
  TGI: > 100 µM
[27]
  TGI: > 100 µM
[28]
  TGI: > 100 µM
[29]
  TGI: > 100 µM
[30]
  TGI: > 100 µM
[31]
  TGI: 66.1 µM
[32]
  TGI: 51.5 µM
[33]
  TGI: > 100 µM
[34]
  TGI: > 100 µM
[35]
  TGI: > 100 µM
[36]
  TGI: > 100 µM
[37]
  TGI: > 100 µM
[38]
  TGI: > 100 µM
[39]
  TGI: > 100 µM
[40]
  TGI: > 100 µM
[41]
  TGI: > 100 µM
[42]
  TGI: > 100 µM
[43]
  TGI: > 100 µM
[44]
  TGI: > 100 µM
[45]
  TGI: > 100 µM
[46]
  TGI: > 100 µM
[47]
  TGI: > 100 µM
[48]
  TGI: > 100 µM
[49]
  TGI: > 100 µM
[50]
  TGI: > 100 µM
[51]
  TGI: > 100 µM
[52]
  TGI: > 100 µM
[53]
  TGI: > 100 µM
[54]
  TGI: > 100 µM
[55]
  TGI: > 100 µM
[56]
  TGI: 55.7 µM
[57]
  TGI: > 100 µM
[58]
  TGI: > 100 µM
[59]
  TGI: > 100 µM

## CCCCCC(CO)C(O)(C(F)(F)F)C(F)(F)F (stereo not given)
[1]
  TGI: > 10 µM
[2]
  TGI: > 10 µM
[3]
  TGI: > 10 µM
[4]
  TGI: > 10 µM
[5]
  TGI: > 10 µM
[6]
  TGI: > 10 µM
[7]
  TGI: > 10 µM
[8]
  TGI: > 10 µM
[9]
  TGI: > 10 µM
[10]
  TGI: > 10 µM
[11]
  TGI: > 10 µM
[12]
  TGI: > 10 µM
[13]
  TGI: > 10 µM
[14]
  TGI: > 10 µM
[15]
  TGI: > 10 µM
[17]
  TGI: > 10 µM
[18]
  TGI: > 10 µM
[19]
  TGI: > 10 µM
[20]
  TGI: > 10 µM
[21]
  TGI: > 10 µM
[22]
  TGI: > 10 µM
[23]
  TGI: > 10 µM
[24]
  TGI: > 10 µM
[25]
  TGI: > 10 µM
[26]
  TGI: > 10 µM
[27]
  TGI: > 10 µM
[28]
  TGI: > 10 µM
[29]
  TGI: > 10 µM
[30]
  TGI: > 10 µM
[31]
  TGI: > 10 µM
[32]
  TGI: > 10 µM
[33]
  TGI: > 10 µM
[34]
  TGI: > 10 µM
[35]
  TGI: > 10 µM
[36]
  TGI: > 10 µM
[37]
  TGI: > 10 µM
[38]
  TGI: > 10 µM
[39]
  TGI: > 10 µM
[40]
  TGI: > 10 µM
[41]
  TGI: > 10 µM
[42]
  TGI: > 10 µM
[44]
  TGI: > 10 µM
[45]
  TGI: > 10 µM
[46]
  TGI: > 10 µM
[47]
  TGI: > 10 µM
[48]
  TGI: > 10 µM
[49]
  TGI: > 10 µM
[50]
  TGI: > 10 µM
[51]
  TGI: > 10 µM
[52]
  TGI: > 10 µM
[53]
  TGI: > 10 µM
[54]
  TGI: > 10 µM
[55]
  TGI: > 10 µM
[56]
  TGI: > 10 µM
[57]
  TGI: > 10 µM
[58]
  TGI: > 10 µM
[59]
  TGI: > 10 µM
